Results published in PubChem BioAssay AID330 (DTP/NCI, 2004).
“And” between values parts separate entries of the source, which are not always exact repeats. Equal entries are not always repeated. Toxic doses and inconclusive results are not listed. The calls were made as follows: active = survival T/C of 150% or more; inactive = T/C below 125% in these data.

Tested on: P388 leukemia ip, CD2F1 mice, survival T/C
Experiment: NCI In Vivo Anticancer Drug Screen. Data for tumor model P388 Leukemia (intraperitoneal) in CD2F1 (CDF1) mice
Details: endpoint: median survival time, higher = longer survival
How it was run: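 Mice carrying the transplanted tumor received test compound or vehicle. Survival was recorded in each group, and the value is the treated-group measurement divided by that of the vehicle-treated control group.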

[1] = dose: 50.0 mg/kg/injection, schedule: Q01DX005 (ip), vehicle: saline with Tween-80
[2] = dose: 100.0 mg/kg/injection, schedule: Q01DX005 (ip), vehicle: saline with Tween-80
[3] = dose: 200.0 mg/kg/injection, schedule: Q01DX005 (ip), vehicle: saline with Tween-80
[4] = dose: 50.0 mg/kg/injection, schedule: Q01DX009 (ip), vehicle: suspension in saline
[5] = dose: 100.0 mg/kg/injection, schedule: Q01DX009 (ip), vehicle: suspension in saline
[6] = dose: 200.0 mg/kg/injection, schedule: Q01DX009 (ip), vehicle: suspension in saline
[7] = dose: 100.0 mg/kg/injection, schedule: Q01DX009 (ip), vehicle: saline with Tween-80
[8] = dose: 100.0 mg/kg/injection, schedule: Q04DX003 (ip), vehicle: saline with Tween-80
[9] = dose: 200.0 mg/kg/injection, schedule: Q01DX009 (ip), vehicle: saline with Tween-80
[10] = dose: 200.0 mg/kg/injection, schedule: Q04DX003 (ip), vehicle: saline with Tween-80
[11] = dose: 100.0 mg/kg/injection, schedule: Q04DX003 (ip), vehicle: saline
[12] = dose: 200.0 mg/kg/injection, schedule: Q04DX003 (ip), vehicle: saline
[13] = dose: 400.0 mg/kg/injection, schedule: Q04DX003 (ip), vehicle: saline
[14] = dose: 12.5 mg/kg/injection, schedule: Q01DX009 (ip), vehicle: saline with Tween-80
[15] = dose: 25.0 mg/kg/injection, schedule: Q01DX009 (ip), vehicle: saline with Tween-80
[16] = dose: 50.0 mg/kg/injection, schedule: Q01DX009 (ip), vehicle: saline with Tween-80

Measured: T/C

COC(=O)[C@@H]1c2cc3c(c(O)c2[C@@H](OC2OC(C)C(OC)C(C)(OC)C2OC)C[C@]1(C)O)C(=O)c1c(O)cc2c(c1C3=O)O[C@H]1O[C@]2(C)[C@H](O)[C@@H](N(C)C)[C@@H]1O (stereo partly specified)
active: dose: 1.0 mg/kg/injection, schedule: Q01DX009 (ip), vehicle: saline 150 % of control
inactive: dose: 0.12 mg/kg/injection, schedule: Q01DX009 (ip), vehicle: saline 120 % of control | dose: 0.25 mg/kg/injection, schedule: Q01DX009 (ip), vehicle: other 122 % of control | dose: 0.25 mg/kg/injection, schedule: Q01DX010 (ip), vehicle: saline 110 % of control | dose: 0.25 mg/kg/injection, schedule: Q04DX003 (ip), vehicle: other 116 % of control | dose: 0.25 mg/kg/injection, schedule: Q04DX003 (ip), vehicle: saline 117 % of control | dose: 0.43 mg/kg/injection, schedule: Q04DX003 (ip), vehicle: water 112 % of control | dose: 0.5 mg/kg/injection, schedule: Q01DX009 (ip), vehicle: other 118 % of control | dose: 0.5 mg/kg/injection, schedule: Q01DX010 (ip), vehicle: saline 105 % of control | dose: 0.5 mg/kg/injection, schedule: Q04DX003 (ip), vehicle: other 109 % of control | dose: 0.52 mg/kg/injection, schedule: Q04DX003 (ip), vehicle: clinical formulation 119 % of control | dose: 0.72 mg/kg/injection, schedule: Q04DX003 (ip), vehicle: water 115 % of control | dose: 0.86 mg/kg/injection, schedule: Q04DX003 (ip), vehicle: clinical formulation 121 % of control | dose: 1.0 mg/kg/injection, schedule: Q01DX009 (ip), vehicle: other 91 % of control | dose: 1.0 mg/kg/injection, schedule: Q01DX009 (ip), vehicle: saline + alcohol 86 % of control | dose: 1.0 mg/kg/injection, schedule: Q01DX010 (ip), vehicle: saline 100 % of control | dose: 1.44 mg/kg/injection, schedule: Q04DX003 (ip), vehicle: clinical formulation 114 % of control | dose: 2.4 mg/kg/injection, schedule: Q04DX003 (ip), vehicle: clinical formulation 107 % of control | dose: 3.33 mg/kg/injection, schedule: Q04DX003 (ip), vehicle: water 120 % of control | dose: 125.0 micrograms/kg/injection, schedule: Q01DX009 (ip), vehicle: other 111 % of control | dose: 375.0 micrograms/kg/injection, schedule: Q04DX003 (ip), vehicle: saline 121 % of control | dose: 500.0 micrograms/kg/injection, schedule: Q04DX003 (ip), vehicle: saline 118 % of control | dose: 1000.0 micrograms/kg/injection, schedule: Q01DX009 (ip), vehicle: saline 114 % of control | dose: 1500.0 micrograms/kg/injection, schedule: Q01DX009 (ip), vehicle: saline 92 % of control | dose: 3000.0 micrograms/kg/injection, schedule: Q04DX003 (ip), vehicle: saline 91 % of control

CCC(C1SC(=S)NC1=O)C1SC(=S)NC1=O (stereo unspecified)
inactive: [1] 92 % of control | [2] 97 % of control

Nc1c(Cl)sc2ccccc2c1=O
inactive: [1] 91 % of control | [2] 91 % of control | [3] 104 % of control

S=C(Nc1ccc(Br)cc1)SCc1ccc(Cl)c(Cl)c1
inactive: [4] 105 % of control | [5] 111 % of control | [6] 110 % of control

CC(=O)OC1CC2C(C)(C)C(=O)C=CC2(C)C2CCC3(C)C(c4ccoc4)OC(=O)C4OC43C12C (stereo unspecified)
inactive: [7] 90 % of control | [8] 109 % of control | [9] 95 % of control | [10] 100 % of control | dose: 400.0 mg/kg/injection, schedule: Q01DX009 (ip), vehicle: saline with Tween-80 100 % of control | dose: 400.0 mg/kg/injection, schedule: Q04DX003 (ip), vehicle: saline with Tween-80 90 % of control

CC(C(=O)O)c1ccc2oc(-c3ccc(Cl)cc3)nc2c1 (stereo unspecified)
inactive: [4] 104 % of control | [5] 100 % of control | [6] 100 % of control

c1ccc2c[s+]ccc2c1
inactive: [4] 90 % of control | [5] 97 % of control

S=C(Oc1ccccc1)SSC(=S)Oc1ccccc1
inactive: dose: 25.0 mg/kg/injection, schedule: Q04DX003 (ip), vehicle: saline with Tween-80 114 % of control | dose: 50.0 mg/kg/injection, schedule: Q04DX003 (ip), vehicle: saline with Tween-80 104 % of control | dose: 100.0 mg/kg/injection, schedule: Q04DX003 (ip), vehicle: DMSO 90 % of control | [8] 96 % of control | [10] 107 % of control

c1ncn(C23CC4CC(CC(C4)C2)C3)n1
inactive: dose: 1.56 mg/kg/injection, schedule: Q01DX001 (ip), vehicle: Klucel (hydroxypropylcellulose) (HPC) 106 % of control | dose: 3.12 mg/kg/injection, schedule: Q01DX001 (ip), vehicle: Klucel (hydroxypropylcellulose) (HPC) 104 % of control | dose: 6.25 mg/kg/injection, schedule: Q01DX001 (ip), vehicle: Klucel (hydroxypropylcellulose) (HPC) 107 % of control and 96 % of control

COc1cc2ccc(CC(N)=O)cc2cc1OC
inactive: [7] 118 % of control | [9] 109 % of control

C/C=C(\C)C(=O)N/N=C/c1cccnc1
inactive: dose: 50.0 mg/kg/injection, schedule: Q01DX005 (ip), vehicle: Klucel (hydroxypropylcellulose) (HPC) 103 % of control | dose: 100.0 mg/kg/injection, schedule: Q01DX005 (ip), vehicle: Klucel (hydroxypropylcellulose) (HPC) 103 % of control | dose: 200.0 mg/kg/injection, schedule: Q01DX005 (ip), vehicle: Klucel (hydroxypropylcellulose) (HPC) 103 % of control

Cc1cc(C)n(-c2ccc([N+](=O)[O-])cn2)n1
inactive: [11] 99 % of control | [12] 96 % of control | [13] 99 % of control

CC(c1ccccc1)C(OC(=O)c1ccc([N+](=O)[O-])cc1)c1ccccc1 (stereo unspecified)
inactive: [14] 100 % of control | [15] 100 % of control | [16] 90 % of control

CC1=C(C(=O)OCc2ccccc2)C(c2cccnc2)C(C(=O)OCc2ccccc2)=C(C)N1
inactive: dose: 25.0 mg/kg/injection, schedule: Q01DX009 (ip), vehicle: distilled water + Tween-80 91 % of control | dose: 50.0 mg/kg/injection, schedule: Q01DX009 (ip), vehicle: distilled water + Tween-80 100 % of control | dose: 100.0 mg/kg/injection, schedule: Q01DX009 (ip), vehicle: distilled water + Tween-80 100 % of control | dose: 200.0 mg/kg/injection, schedule: Q01DX009 (ip), vehicle: distilled water + Tween-80 98 % of control | dose: 400.0 mg/kg/injection, schedule: Q01DX009 (ip), vehicle: distilled water + Tween-80 105 % of control

O=[N+]([O-])c1ccc(N2N=N[C@@H]3C4CCC(C4O)[C@@H]32)cc1 (stereo partly specified)
inactive: [16] 88 % of control | [7] 97 % of control | [9] 89 % of control

CC1CCCC2CC3CCCCC3OCN12 (stereo unspecified)
inactive: [11] 109 % of control | [12] 104 % of control | [13] 104 % of control

CC(=O)OCC1OC(n2ccc(N)nc2=O)C(OC(C)=O)C1OC(C)=O (stereo unspecified)
active: dose: 100.0 mg/kg/injection, schedule: Q01DX009 (ip), vehicle: saline 162 % of control | dose: 200.0 mg/kg/injection, schedule: Q01DX009 (ip), vehicle: saline 178 % of control

O=c1cnc(=O)[nH][nH]1
inactive: dose: 60.0 mg/kg/injection, schedule: Q01DX005 (ip), vehicle: saline with Tween-80 103 % of control | dose: 120.0 mg/kg/injection, schedule: Q01DX005 (ip), vehicle: saline with Tween-80 91 % of control | dose: 240.0 mg/kg/injection, schedule: Q01DX005 (ip), vehicle: saline with Tween-80 93 % of control

CCN(CC)c1ccc2cc(-c3nc4ccccc4[nH]3)c(=O)oc2c1
inactive: [14] 96 % of control | [15] 95 % of control | [16] 88 % of control and 98 % of control | [7] 95 % of control

COc1ccc(S(=O)(=O)N/N=C\c2cccc([N+](=O)[O-])c2O)cc1OC
inactive: [1] 102 % of control | [2] 99 % of control | [3] 101 % of control
